Patent US5414000A, “Antiviral pyrinyl substituted tetrahydropyrans” (Bristol-Myers Squibb Co., priority 1994, dated 1995)

Experiments:
Format in all cases: cell-based
[1] = tested on: VZV (varicella zoster virus, strain ELLEN); assay: VZV antiviral plaque reduction assay in WI-38 cell culture; conditions: Human alphaherpesvirus 3, WI-38 monolayers, at least 50% plaque reduction vs virus controls, 5-7 days at 37° C., read-out: ID50 VZV
Method: (§1) Assays were performed in cell culture systems to determine the concentrations of compounds that are effective in preventing several kinds of viral infections. Abbreviations:
(§2) HSV-1 (herpes simplex virus type 1, strain Schooler), HSV-2 (herpes simplex virus type 2, strain 186), VZV (varicella zoster virus, strain ELLEN), HCMC (human cytomegalovirus, strain AD 169). Cell Culture Assays:
(§3) HSV-1, HSV-2, HCMV and VZV antiviral assays: Virus was adsorbed to WI-38 cell culture monolayers in 5 well culture plates (Costar, Cambridge, Mass.) for 1 hour prior to addition of maintenance medium containing duplicate dilutions of the test compound. Inhibition of plaque development was evaluated on fixed and stained monolayers after 4 days incubation at 37° C. for HSV-1 and HSV-2, and after 5-7 days incubation at 37° C. for HCMV and VZV. ID50 values were determined from the drug concentration which conferred at least a 50% plaque reduction compared to virus controls.

[2] = tested on: HSV-2 (herpes simplex virus type 2, strain 186); assay: HSV-2 antiviral plaque reduction assay in WI-38 cell culture; conditions: Human alphaherpesvirus 2, 96 h; HSV-2 strain 186; WI-38 monolayers; at least 50% plaque reduction vs virus controls; 4 days at 37° C.; read-out: ID50 HSV-2
Method: as §1, §2, §3

[3] = tested on: HCMV (human cytomegalovirus, strain AD 169); assay: HCMV antiviral plaque reduction assay in WI-38 cell culture; conditions: Human betaherpesvirus 5; HCMV strain AD 169; WI-38 monolayers; at least 50% plaque reduction vs virus controls; 5-7 days at 37° C.; read-out: ID50 HCMV
Method: as §1, §2, §3

[4] = tested on: HSV-1 (herpes simplex virus type 1, strain Schooler); assay: HSV-1 antiviral plaque reduction assay in WI-38 cell culture; conditions: Human alphaherpesvirus 1, 96 h; HSV-1 strain Schooler; WI-38 monolayers; at least 50% plaque reduction vs virus controls; 4 days at 37° C.; read-out: ID50 HSV-1
Method: as §1, §2, §3

SMILES: Nc1nc2c(ncn2[C@@H]2CO[C@H](CO)[C@@H](O)C2)c(=O)[nH]1 [Example 1, [3S-(3α, 5β, 6α)]-2-Amino-1,9-dihydro-9-[tetrahydro-5-hydroxy-6-(hydroxymethyl)-2H-pyran-3-yl]-6H-purin-6-one]
- IC50 [1]: 18 to 36 µM
- IC50 [2]: 18 µM
- IC50 [3]: 18 to 36 µM
- IC50 [4]: 18 µM

SMILES: Nc1ncnc2c1ncn2[C@@H]1CO[C@H](CO)[C@@H](O)C1 [Example 2, [2R-(2α, 3β, 5α)]-5-(6-Amino-9H-purin-9yl)tetrahydro-3-hydroxy-2H-pyran-2-methanol]
- IC50 [1]: 38 µM
- IC50 [2]: 8 to 19 µM
- IC50 [3]: 4 to 38 µM
- IC50 [4]: 8 to 19 µM

SMILES: Nc1ccn([C@@H]2CO[C@H](CO)[C@@H](O)C2)c(=O)n1 [Example 3, [3S-(3α, 5β, 6α)]-4-Amino-1-[tetrahydro-5-hydroxy-6-(hydroxymethyl) -2H-pyran-3-yl]-2-(1H) -pyrimidinone]
- IC50 [1]: 4 to 8 µM
- IC50 [2]: 0.4 to 0.8 µM
- IC50 [3]: 2 µM
- IC50 [4]: 0.4 to 0.8 µM

SMILES: O=c1[nH]c(=O)n([C@@H]2CO[C@H](CO)[C@@H](O)C2)cc1I [Example 4, [3S-(3α, 5β, 6α)]-5-Iodo-1-[tetrahydro-5-hydroxy-6-(hydroxymethyl) -2H-pyran-3-yl]-2,4 (1H, 3H) -pyrimidinedione]
- IC50 [1]: 68 to 272 µM
- IC50 [2]: 3 to 5.4 µM
- IC50 [3]: > 272 µM
- IC50 [4]: 0.3 to 1.4 µM

SMILES: Cc1cn([C@@H]2CO[C@H](CO)[C@@H](O)C2)c(=O)[nH]c1=O [Example 5, [3S-(3α, 5β, 6α)]-5-Methyl-1-[tetrahydro-5-hydroxy-6-(hydroxymethyl)-2H-pyran-3-yl]-2,4 (1H, 3H)-pyrimidinedione]
- IC50 [1]: 39 to 390 µM
- IC50 [2]: > 390 µM
- IC50 [3]: ≥ 390 µM
- IC50 [4]: 390 µM

SMILES: O=c1[nH]c(=O)n([C@@H]2CO[C@H](CO)[C@@H](O)C2)cc1/C=C/Br [Example 6]
- IC50 [1]: 5.7 to 14.5 µM
- IC50 [2]: > 288 µM
- IC50 [3]: > 288 µM
- IC50 [4]: 29 to 72 µM
